Measurements taken from BigSolDB 2.1.

Q: Which results are given for `O=C(O)c1ccc(-c2ccc(C(=O)O)o2)o1`?
A: solubility (mole fraction) (in DMAc, 298.15 K): 0.0166; solubility (mole fraction) (in DMAc, 303.15 K): 0.0208; solubility (mole fraction) (in DMAc, 313.15 K): 0.0283; solubility (mole fraction) (in DMAc, 323.15 K): 0.0499; solubility (mole fraction) (in DMAc, 333.15 K): 0.0555; solubility (mole fraction) (in DMAc, 343.15 K): 0.0807; solubility (mole fraction) (in DMSO, 298.15 K): 0.00768; solubility (mole fraction) (in DMSO, 303.15 K): 0.00984; solubility (mole fraction) (in DMSO, 313.15 K): 0.017; solubility (mole fraction) (in DMSO, 323.15 K): 0.0282; solubility (mole fraction) (in DMSO, 333.15 K): 0.0412; solubility (mole fraction) (in DMSO, 343.15 K): 0.0728; solubility (mole fraction) (in acetic acid, 298.15 K): 8.11e-06; solubility (mole fraction) (in acetic acid, 303.15 K): 1.13e-05; solubility (mole fraction) (in acetic acid, 313.15 K): 2.35e-05; solubility (mole fraction) (in acetic acid, 323.15 K): 3.38e-05; solubility (mole fraction) (in acetic acid, 333.15 K): 6.79e-05; solubility (mole fraction) (in acetic acid, 343.15 K): 0.000112; solubility (mole fraction) (in acetic acid, 353.15 K): 0.000214; solubility (mole fraction) (in acetonitrile, 298.15 K): 1.73e-06; solubility (mole fraction) (in acetonitrile, 303.15 K): 2.2e-06; solubility (mole fraction) (in acetonitrile, 313.15 K): 3.47e-06; solubility (mole fraction) (in acetonitrile, 323.15 K): 5.31e-06; solubility (mole fraction) (in acetonitrile, 333.15 K): 7.91e-06; solubility (mole fraction) (in acetonitrile, 343.15 K): 1.15e-05; solubility (mole fraction) (in acetonitrile, 353.15 K): 1.58e-05; solubility (mole fraction) (in acetonitrile, 363.15 K): 2.12e-05; solubility (mole fraction) (in isopropanol, 298.15 K): 0.0001; solubility (mole fraction) (in isopropanol, 303.15 K): 0.000106; solubility (mole fraction) (in isopropanol, 313.15 K): 0.000154; solubility (mole fraction) (in isopropanol, 323.15 K): 0.000223; solubility (mole fraction) (in isopropanol, 333.15 K): 0.000284; solubility (mole fraction) (in isopropanol, 343.15 K): 0.000592; solubility (mole fraction) (in isopropanol, 353.15 K): 0.00116; solubility (mole fraction) (in isopropanol, 363.15 K): 0.0014; solubility (mole fraction) (in methanol, 298.15 K): 0.000331; solubility (mole fraction) (in methanol, 303.15 K): 0.000393; solubility (mole fraction) (in methanol, 313.15 K): 0.000464; solubility (mole fraction) (in methanol, 323.15 K): 0.000574; solubility (mole fraction) (in methanol, 333.15 K): 0.000702; solubility (mole fraction) (in methanol, 343.15 K): 0.00109; solubility (mole fraction) (in n-pentanol, 298.15 K): 0.000146; solubility (mole fraction) (in n-pentanol, 303.15 K): 0.000154; solubility (mole fraction) (in n-pentanol, 323.15 K): 0.000148; solubility (mole fraction) (in n-pentanol, 333.15 K): 0.000214; solubility (mole fraction) (in n-pentanol, 343.15 K): 0.000412; solubility (mole fraction) (in n-pentanol, 353.15 K): 0.000757; solubility (mole fraction) (in n-pentanol, 363.15 K): 0.00144; solubility (mole fraction) (in water, 298.15 K): 9.64e-07; solubility (mole fraction) (in water, 303.15 K): 1.31e-06; solubility (mole fraction) (in water, 313.15 K): 1.97e-06; solubility (mole fraction) (in water, 323.15 K): 2.55e-06; solubility (mole fraction) (in water, 333.15 K): 3.75e-06; solubility (mole fraction) (in water, 343.15 K): 4.84e-06; solubility (mole fraction) (in water, 353.15 K): 7.43e-06; solubility (mole fraction) (in water, 363.15 K): 9.09e-06
